Results from patent EP0408330A2, “Anti-infective agents, process for their preparation and their use in therapy” (priority 1989, dated 1991).

Key:
[1] = test system: Gram negative bacteria; experiment: In vitro assessment of Gram negative activity (MIC/MBC panel); assay type: cell-based
Procedure: (§1) Minimum inhibitory concentrations (MIC), minimum bactericidal concentrations (MBC), rates of killing and the incidence of naturally occurring resistant mutants were determined for silver fusidate prepared according to Example 1. MICs were determined by the plate dilution method using IsoSensitest (IsoSensitest is a Trade Mark) media supplemented where necessary with 5% lysed horse blood. Two inocula were used, 10⁶ and 10⁴ cfu. MICs were read after overnight incubation in the appropriate atmosphere. The plates bearing the 10⁶ inocula were replicated using velvet pads for the determination of MBC which is defined as the lowest antibiotic concentration killing at least 99.9% of the original inoculum.
(§2) 20 strains of the following species were tested:
(§3) Gram negative: Escherichia coli, Enterobacter spp., Klebsiella pneumoniae, Acinetobacter spp., Pseudomonas aeruginosa, Providencia stuartii, Proteus mirabilis, indole-positive Proteae (10 each of Prov. rettgeri and Pr. vulgaris).

[2] = test system: Pseudomas sp.; experiment: MIC / MBC, plate dilution method (MBC by replica plating with velvet pads); assay type: cell-based, Pseudomonas aeruginosa
Procedure: as §1, §2, §3

[3] = test system: one particular strain of Staphyloccus; experiment: Rates of killing; assay type: cell-based; settings: non-growing state compared with growing state
Procedure: as §1
This is a very interesting observation because it is known that certain strains of Staphylococcus colonize, e.g., the nose, creating in the host a carrier state. Carrier state hosts are a constant source of potential infection both for themselves and those they come in contact with. This is a particularly troublesome source of infections in the hospital environment. It is recognized that the cheapest and most efficient way off removing this problem from a hospital is to remove or discharge the carrier. […]

[4] = test system: Gram positive and Gram negative bacteria and Candida albicans; experiment: In vitro assessment of spectrum of activity (MIC/MBC panel); assay type: cell-based; settings: compared to sodium fusidate and silver sulphadiazine
Procedure: as §1, §2
(§4) Gram positive: methicillin-resistant Staph. aureus (MRSA), methicillin-sensitive Staph. aureus (MSSA), methicillin-resistant Staph. epidermidis (MRSE), Enterocci, Streptococcus pyogenes, Candida albicans, Clostridium spp.
as §3

[5] = test system: various strains of Staphylococcus; experiment: Incidence of naturally occurring resistant mutants; assay type: cell-based; settings: absence of growth in the presence of 100 µg/ml
Procedure: as §1

[6] = test system: MRSA; experiment: MIC / MBC, plate dilution method (MBC by replica plating with velvet pads); assay type: cell-based, methicillin-resistant Staph. aureus (MRSA); settings: inoculum of 10⁶ org/ml, 20 strains
Procedure: as §1, §2, §4

[7] = test system: Gram positive bacteria; experiment: MIC determination, zinc fusidate panel, overall assessment; assay type: cell-based
Procedure: (§5) MICs were determined for zinc fusidate prepared according to Example 3 using the following Gram positive and Gram negative panels:
(§6) 4 strains of Staphylococcus aureus (2 methicillin-resistant, 2 methicilllin-sensitive) and 2 strains each of coagulase-negative staphylococci, Staph. saprophyticus, Enterococci, Streptococcus pyogenes, Strept. agalactiae, Listeria monocytogenes, diphtheroids and Bacillus spp., 2 strains each of Escherichia coli, Klebsiella pneumoniae, Pseudomonas aeruginosa, Providencia stuartii, Proteus morganii, Salmonella typhimurium, Acinetobacter spp., Citrobacter freundii, Serratia marcescens and Enterobacter cloacae.

[8] = test system: coagulase negative Staphylococci; experiment: MIC determination, zinc fusidate panel; assay type: cell-based; settings: 2 strains
Procedure: as §5, §6

[9] = test system: remaining Gram positive organisms; experiment: MIC determination, zinc fusidate panel; assay type: cell-based; settings: remaining Gram positive organisms of the panel
Procedure: as §5, §6

CC(=O)O[C@H]1C[C@@]2(C)[C@@H](C[C@@H](O)[C@H]3[C@@]4(C)CC[C@@H](O)[C@@H](C)[C@@H]4CC[C@@]32C)/C1=C(\CCC=C(C)C)C(=O)O [sodium fusidate]
Gram negative activity [1]: total lack of Gram negative activity

silver fusidate
MBC range [2]: 32 to 64 µg/mL | MIC range [2]: 32 to 64 µg/mL | rate of killing [3]: killed more rapidly in a non-growing state | spectrum of activity [4]: broad spectrum of activity | incidence of silver fusidate resistant mutants [5]: too low to be measured | MIC range [6]: 0.13 to 64 µg/mL

silver salt of N¹-(pyrimidin-2-yl) sulphanilamide [silver sulphadiazine, reference compound]
MBC range ([6]; lowest concentration killing at least 99.9% of the original inoculum): 128 to 256 µg/mL

zinc fusidate
activity against Gram positive bacteria [7]: demonstrates activity | MIC range [8]: 10 to 100 µg/mL | MIC range [9]: <1 to 10 µg/mL
